Here are results for 2 molecules from article PMC12690121 (Nature Communications, 2025).

The target of one data set is T1, ArnC (Salmonella enterica, UniProt O52324).
T1 sequence (O52324 1-327): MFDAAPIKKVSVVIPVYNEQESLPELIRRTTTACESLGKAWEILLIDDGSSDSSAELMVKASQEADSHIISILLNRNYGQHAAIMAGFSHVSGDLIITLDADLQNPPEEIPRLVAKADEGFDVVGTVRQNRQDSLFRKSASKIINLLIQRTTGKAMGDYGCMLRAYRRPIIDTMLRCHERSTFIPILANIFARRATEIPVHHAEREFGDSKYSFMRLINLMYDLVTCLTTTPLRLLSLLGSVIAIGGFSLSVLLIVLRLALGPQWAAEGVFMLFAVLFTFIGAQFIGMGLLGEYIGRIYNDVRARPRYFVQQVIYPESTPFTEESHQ
Put plainly: MST. The class given is binding.

The data set “cryo-EM structure” concerns the molecule itself. Put plainly: cryo-EM structure.

On ArnC, `O=c1ccn([C@@H]2O[C@H](COP(=O)(O)OP(=O)(O)O)[C@@H](O)[C@H]2O)c(=O)[nH]1` [UDP] displayed a dissociation constant Kd of 8.5 µM. That is a single-digit micromolar value.

B1: ArnC from Salmonella enterica (ArnCSe) (enzyme)
chain: T1 sequence (O52324 1-327)
As to B1, in “cryo-EM structure”, the “stoichiometry N” value stood at 4.
